5 compounds from patent US20230416330A1, “Optimized GIP Peptide Analogues” (Antag Therapeutics ApS, priority 2019, published 2023) can be followed below.

Data set [1] has as its target T1, human GIP receptor (Homo sapiens, UniProt P48546).
T1 construct: host or cells: HEK-293 cells, transient transfection (Lipofectamine 2000), cDNA in pCMV-Script vector
T1 sequence (P48546 22-466): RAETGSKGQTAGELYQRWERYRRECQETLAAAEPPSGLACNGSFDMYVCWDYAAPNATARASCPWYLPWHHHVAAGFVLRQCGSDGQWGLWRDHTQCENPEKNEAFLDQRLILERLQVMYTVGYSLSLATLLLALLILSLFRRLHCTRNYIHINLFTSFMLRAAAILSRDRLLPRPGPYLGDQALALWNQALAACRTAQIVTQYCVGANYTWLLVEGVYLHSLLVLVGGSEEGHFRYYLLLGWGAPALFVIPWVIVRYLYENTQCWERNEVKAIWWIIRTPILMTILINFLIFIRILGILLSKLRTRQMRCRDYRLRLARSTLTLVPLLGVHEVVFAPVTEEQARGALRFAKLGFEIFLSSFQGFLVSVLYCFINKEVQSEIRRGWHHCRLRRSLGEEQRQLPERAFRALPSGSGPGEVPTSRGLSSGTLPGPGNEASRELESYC
The experiment in a line: cAMP assay Alternative 2 (Gaddum assay), antagonist potency pKb. In kind it is cell-based. As to the method: HEK293 cells were cultured in 10% CO2 and 37° C. in Dulbecco's modified Eagle's medium supplemented with 10% fetal bovine serum, 2 mM glutamine, 180 units/ml penicillin, and 45 µg/ml streptomycin. Transient transfection with hGIPR for the CisBio assay from Table 2C was performed by using Lipofectamine 2000.
Antagonist potency (pKb) was estimated in a functional setting. The estimated pKb values were calculated from the shifts of the agonist-concentration-response curves in the presence of a single dose of GIP peptide antagonists using the Gaddum equation: pKb=log(DR-1)-log(B), where DR (EC50′/EC50) is the dose ratio calculated from EC50 of GIP1-42 obtained in the presence and absence (EC50) of antagonist, and B is the antagonist concentration used.
The in vitro functional assessment of compounds towards human GIP receptor was determined in HEK-293 cells transiently expressing the receptor. On the day of the assay, cells were resuspended in HBSS buffer (Gibco, 14025-50) supplemented with […] (Gibco, 15630-106), 0.1% Pluronic F-68 (Gibco, 24040-032) and 0.1% casein (Sigma, C4765), and plated in 384-well plates at a density of 3500 cells/well. The GIP peptide analogues of the present disclosure were diluted in HBSS buffer supplemented with 20 mM HEPES, 0.1% pluronic, 0.1% casein and 500 uM IBMX. […] Increasing dose of agonist (GIP1-42) was subsequently added to cells and incubated for additionally 30 min at 37° C. The intracellular cAMP was quantitatively determined using the CisBio cAMP Dynamic 2 HTRF Assay Kit. The assay is based on a competition between native cAMP produced by cells and cAMP labeled with the dye d2 for binding to a cryptate labeled antibody. The specific signal (i.e. energy transfer signal) is inversely proportional to the concentration of cAMP in the sample.
The cAMP-d2 conjugate and the antibody anti-cAMP-Cryptate, both diluted in lysis buffer provided in the kit, were added to the cells according to the manufacturer's protocol. The resulting competitive assay was incubated for 60 minutes at room temperature, and the signal was detected by using a PerkinElmer Envision® instrument with excitation at 320 nm and emission at 665 nm and 620 nm. The HTRF ratio (emission at 665 nm/620 nm*10,000) is inversely proportional to the amount of cAMP present and is converted to nM cAMP per well using a cAMP standard curve.
A general note: cAMP levels reflect the balance of adenylyl cyclase and phosphodiesterase activity.

Data set [2] can be described thus: Physical stability: fibril formation in Thioflavin T (ThT) assay with agitation. In kind it is physicochemical. To be noted: 1 mg/ml, TFA, Phosphate (7.4); 25° C., agitation. The gist of the method:
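Peptides at 1, 5, 7.5 or 15 mg/ml in 50 mM sodium phosphate pH 7.4 or in water adjusted to pH 7.4 with NaOH, filtered 0.22 μm, with ThT added. Wells held a 3 mm silica bead under 300 rpm orbital agitation at 25° C. Emission at 486 nm tracked continuously; lag time = 10% of transition above baseline.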

Data set [3] can be described thus: Solubility by visual inspection of peptide solutions. In kind it is physicochemical. To be noted: 1 mg/ml, TFA, Phosphate (7.4). In a few lines: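 Peptides dissolved at 1, 5, 7.5 or 15 mg/ml in 50 mM sodium phosphate pH 7.4 or water adjusted to pH 7.4 with NaOH, with gentle mixing. Immediate solubility judged visually as a clear, colorless solution.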
[4] abbreviates: Table 2C, Gaddum equation, single antagonist dose, HEK-293 hGIPR, read-out: nM (Kb).

Structures are written as SMILES. Read-outs that look alike come from different tables or passages of the source. Starred links: 1 amine or outer side, 2 acyl side, 3 side chain; linkers in the order of their positions; H or OH if unused. Non-standard residues stand in square brackets, D forms with d. Residues, ends and D or L forms follow the SMILES beside them. Groups on a side chain read outwards from the residue. *: point of attachment. C18 diacid = O=C(O)CCCCCCCCCCCCCCCCC(=O)*; C16 diacid = O=C(O)CCCCCCCCCCCCCCC(=O)*; γGlu = O=C(O)[C@H](CCC(=O)[*:2])N[*:1]; Adipoyl = O=C(CCCCC(=O)[*:2])[*:1]; Glutaryl = O=C(CCCC(=O)[*:2])[*:1]; AEEA = NCCOCCOCC(=O)O; Aib = CC(C)(N)C(=O)O Some results are limits rather than exact numbers.

Usually Kb stands for the equilibrium dissociation constant of an antagonist, usually derived from a functional assay.

As for `CC[C@H](C)[C@H](NC(=O)[C@H](CO)NC(=O)[C@H](Cc1ccc(O)cc1)NC(=O)[C@H](CC(=O)O)NC(=O)[C@H](CO)NC(=O)[C@@H](NC(=O)[C@H](Cc1ccccc1)NC(=O)[C@@H](NC(=O)CNC(=O)[C@@H](N)CCC(=O)O)[C@@H](C)O)[C@@H](C)CC)C(=O)N[C@@H](C)C(=O)N[C@@H](CCSC)C(=O)N[C@@H](CC(=O)O)C(=O)N[C@@H](CCCCN)C(=O)N[C@H](C(=O)N[C@@H](CCCCNC(=O)CCCCCCCCCCCCCCC(=O)O)C(=O)N[C@@H](CCC(N)=O)C(=O)N[C@@H](CCC(N)=O)C(=O)N[C@@H](CC(=O)O)C(=O)N[C@@H](Cc1ccccc1)C(=O)N[C@H](C(=O)N[C@@H](CCC(=O)O)C(=O)N[C@@H](Cc1c[nH]c2ccccc12)C(=O)N[C@@H](CC(C)C)C(=O)N[C@@H](CC(C)C)C(=O)N[C@@H](C)C(=O)N[C@@H](CCC(N)=O)C(=O)N[C@@H](CCCCN)C(=O)O)C(C)C)[C@@H](C)CC` [AT749] (H-EGTFISDYSIAMDKIK(C16 diacid)QQDFVEWLLAQK-OH; N-terminus assumed), the Kb in data set [1] (setting [4]) stood at 2.2 nM. The “Avr lag time” value in data set [2] is less than 24 h. Besides, in data set [3], the Visual appearance entry was “Clear”.

In turn, `CC[C@H](C)[C@H](NC(=O)[C@H](CCCCN)NC(=O)[C@H](CC(=O)O)NC(=O)[C@H](CCSC)NC(=O)[C@H](CCCCNC(=O)CCCCCCCCCCCCCCC(=O)O)NC(=O)[C@@H](NC(=O)[C@H](CO)NC(=O)[C@H](Cc1ccc(O)cc1)NC(=O)[C@H](CC(=O)O)NC(=O)[C@H](CO)NC(=O)[C@@H](NC(=O)[C@H](Cc1ccccc1)NC(=O)[C@@H](NC(=O)CNC(=O)[C@@H](N)CCC(=O)O)[C@@H](C)O)[C@@H](C)CC)[C@@H](C)CC)C(=O)N[C@@H](Cc1c[nH]cn1)C(=O)N[C@@H](CCC(N)=O)C(=O)N[C@@H](CCC(N)=O)C(=O)N[C@@H](CC(=O)O)C(=O)N[C@@H](Cc1ccccc1)C(=O)N[C@H](C(=O)N[C@@H](CCC(=O)O)C(=O)N[C@@H](Cc1c[nH]c2ccccc12)C(=O)N[C@@H](CC(C)C)C(=O)N[C@@H](CC(C)C)C(=O)N[C@@H](C)C(=O)N[C@@H](CCC(N)=O)C(=O)N[C@@H](CCCCN)C(=O)N1CCC[C@H]1C(=O)N[C@@H](CO)C(=O)N[C@@H](CO)C(=O)NCC(=O)N[C@@H](C)C(=O)N1CCC[C@H]1C(=O)N1CCC[C@H]1C(=O)N1CCC[C@H]1C(=O)N[C@@H](CO)C(=O)O)C(C)C` [AT740] (H-EGTFISDYSIK(C16 diacid)MDKIHQQDFVEWLLAQKPSSGAPPPS-OH; N-terminus assumed) showed a Kb in data set [1] of 14 nM. For the same compound, the “Avr lag time (h)” value in data set [2] is “fnd (Fnd = fibrils not detected within experiment time (96 hours) with agitation.)”. In data set [3], the Visual appearance result is on record as “Clear”.

Take `CC[C@H](C)[C@H](NC(=O)[C@H](CCCCN)NC(=O)[C@H](CCC(=O)O)NC(=O)[C@H](CC(C)C)NC(=O)C(C)(C)NC(=O)[C@@H](NC(=O)[C@H](CO)NC(=O)[C@H](Cc1ccc(O)cc1)NC(=O)[C@H](CCC(=O)O)NC(=O)[C@H](CO)NC(=O)[C@@H](NC(=O)[C@H](Cc1ccccc1)NC(=O)[C@@H](NC(=O)CNC(=O)CCCCC(=O)O)[C@@H](C)O)[C@@H](C)CC)[C@@H](C)CC)C(=O)N[C@@H](CCCCNC(=O)COCCOCCNC(=O)COCCOCCNC(=O)CC[C@H](NC(=O)CCCCCCCCCCCCCCCCC(=O)O)C(=O)O)C(=O)N[C@@H](CCC(N)=O)C(=O)N[C@@H](CCC(N)=O)C(=O)N[C@@H](CCC(=O)O)C(=O)N[C@@H](Cc1ccccc1)C(=O)N[C@H](C(=O)N[C@@H](CCC(=O)O)C(=O)N[C@@H](Cc1c[nH]c2ccccc12)C(=O)N[C@@H](CC(C)C)C(=O)N[C@@H](CC(C)C)C(=O)N[C@@H](C)C(=O)N[C@@H](CCC(N)=O)C(=O)N[C@@H](CCCCN)C(=O)N1CCC[C@H]1C(=O)N[C@@H](CO)C(=O)N[C@@H](CO)C(=O)NCC(=O)N[C@@H](C)C(=O)N1CCC[C@H]1C(=O)N1CCC[C@H]1C(=O)N1CCC[C@H]1C(=O)N[C@@H](CO)C(=O)O)C(C)C` [AT753] (Adipoyl-GTFISEYSI[Aib]LEKIK([AEEA-AEEA-γGlu-C18 diacid])QQEFVEWLLAQKPSSGAPPPS-OH): the Kb in data set [1] (setting [4]) is 0.23 nM.

For the compound `CC[C@H](C)[C@H](NC(=O)[C@H](CO)NC(=O)[C@H](Cc1ccc(O)cc1)NC(=O)[C@H](CCC(=O)O)NC(=O)[C@H](CO)NC(=O)[C@@H](NC(=O)[C@H](Cc1ccccc1)NC(=O)[C@@H](NC(=O)CNC(=O)CCCC(=O)O)[C@@H](C)O)[C@@H](C)CC)C(=O)N[C@@H](C)C(=O)N[C@@H](CC(C)C)C(=O)N[C@@H](CCC(=O)O)C(=O)N[C@@H](CCCCN)C(=O)N[C@H](C(=O)N[C@@H](CCCCNC(=O)COCCOCCNC(=O)COCCOCCNC(=O)CC[C@H](NC(=O)CCCCCCCCCCCCCCCCC(=O)O)C(=O)O)C(=O)N[C@@H](CCC(N)=O)C(=O)N[C@@H](CCC(N)=O)C(=O)N[C@@H](CCC(=O)O)C(=O)N[C@@H](Cc1ccccc1)C(=O)N[C@H](C(=O)N[C@@H](CCC(=O)O)C(=O)N[C@@H](Cc1c[nH]c2ccccc12)C(=O)N[C@@H](CC(C)C)C(=O)N[C@@H](CC(C)C)C(=O)N[C@@H](C)C(=O)N[C@@H](CCC(N)=O)C(=O)N[C@@H](CCCCN)C(=O)N1CCC[C@H]1C(=O)N[C@@H](CO)C(=O)N[C@@H](CO)C(=O)NCC(=O)N[C@@H](C)C(=O)N1CCC[C@H]1C(=O)N1CCC[C@H]1C(=O)N1CCC[C@H]1C(=O)N[C@@H](CO)C(=O)O)C(C)C)[C@@H](C)CC` [AT707] (Glutaryl-GTFISEYSIALEKIK([AEEA-AEEA-γGlu-C18 diacid])QQEFVEWLLAQKPSSGAPPPS-OH), the antagonist equilibrium constant (Kb) in data set [1] (setting [4]) was 0.28 nM.

Consider `CC[C@H](C)[C@H](NC(=O)[C@H](CCCCN)NC(=O)[C@H](CCC(=O)O)NC(=O)[C@H](CCSC)NC(=O)C(C)(C)NC(=O)[C@@H](NC(=O)[C@H](CO)NC(=O)[C@H](Cc1ccc(O)cc1)NC(=O)[C@H](CCC(=O)O)NC(=O)[C@H](CO)NC(=O)[C@@H](NC(=O)[C@H](Cc1ccccc1)NC(=O)[C@@H](NC(=O)CNC(=O)[C@@H](N)CCC(=O)O)[C@@H](C)O)[C@@H](C)CC)[C@@H](C)CC)C(=O)N[C@@H](CCCCNC(=O)CCCCCCCCCCCCCCC(=O)O)C(=O)N[C@@H](CCC(N)=O)C(=O)N[C@@H](CCC(N)=O)C(=O)N[C@@H](CC(=O)O)C(=O)N[C@@H](Cc1ccccc1)C(=O)N[C@H](C(=O)N[C@@H](CCC(=O)O)C(=O)N[C@@H](Cc1c[nH]c2ccccc12)C(=O)N[C@@H](CC(C)C)C(=O)N[C@@H](CC(C)C)C(=O)N[C@@H](C)C(=O)N[C@@H](CCC(N)=O)C(=O)N[C@@H](CCCCN)C(=O)N1CCC[C@H]1C(=O)N[C@@H](CO)C(=O)N[C@@H](CO)C(=O)NCC(=O)N[C@@H](C)C(=O)N1CCC[C@H]1C(=O)N1CCC[C@H]1C(=O)N1CCC[C@H]1C(=O)N[C@@H](CO)C(=O)O)C(C)C` [AT716] (H-EGTFISEYSI[Aib]MEKIK(C16 diacid)QQDFVEWLLAQKPSSGAPPPS-OH; N-terminus assumed), for which, in data set [1] (setting [4]), the Kb was found to be 0.29 nM.
